Reference: US7329678B2, “Chemical compounds” (SmithKline Beecham Corporation, priority 2003, dated 2008)
Where a name gives a salt, the structure may show the parent alone.

Target: T1, Serum Glucocorticoid-regulated Kinase-1 (SGK-1) (Homo sapiens, UniProt O00141, S422D)
T1 construct: a truncated form of the human enzyme that included amino acids 61-431; 6xHis (N); made in house
T1 sequence (O00141 61-431 S422D): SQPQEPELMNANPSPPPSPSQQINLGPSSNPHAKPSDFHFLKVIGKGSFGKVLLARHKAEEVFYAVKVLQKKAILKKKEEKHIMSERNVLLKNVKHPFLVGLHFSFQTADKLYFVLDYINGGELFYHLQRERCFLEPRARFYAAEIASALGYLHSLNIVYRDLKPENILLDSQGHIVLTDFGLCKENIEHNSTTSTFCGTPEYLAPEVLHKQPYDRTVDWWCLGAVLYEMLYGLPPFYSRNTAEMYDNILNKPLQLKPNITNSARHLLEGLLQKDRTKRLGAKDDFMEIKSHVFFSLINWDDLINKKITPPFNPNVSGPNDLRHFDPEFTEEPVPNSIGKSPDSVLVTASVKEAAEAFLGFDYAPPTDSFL
Experiment: SGK-1 Enzyme Assay (SGK1e), substrate phosphorylation, scintillation proximity
Format: biochemical
Conditions: truncated human SGK-1 (aa 61-431, S422D), 10 μM ATP, Crosstide substrate
Procedure: SGK-1 Enzyme Assay (SGK1e):
Compounds of the present invention were tested for Serum Glucocorticoid-regulated Kinase-1 (SGK-1) protein serine/threonine kinase inhibitory activity in substrate phosphorylation assays using enzyme purified from a baculovirus expression vector system. The recombinant baculovirus was made to express the intracellular domain of SGK-1 (GenBank accession number AAD41091). The virus expressed a truncated form of the human enzyme that included amino acids 61-431. Serine 422 was replaced with Aspartic acid to activate the enzyme, and 6 Histidine residues were added at the amino terminus to facilitate purification. The protein was purified using Ni-NTA agarose affinity chromatography. The peptide substrate was an N-terminal biotinylated synthetic peptide named Crosstide (biotin-Ahx-GRPRTSSFAEG-OH), corresponding to the sequence in GSK3 surrounding the serine phosphorylated by MAPKAP Kinase-1/Rsk and p70 S6 Kinase.
The method measures the ability of the isolated enzyme to catalyze the transfer of the γ-phosphate from ATP onto serine/threonine residues in the biotinylated Crosstide. Reactions were performed in 96-well polystyrene round-bottom plates in a final volume of 30 μL. Reaction mixtures contained 62.5 mM HEPES (pH 7.4), 10 mM MgCl2, 0.1 mM EDTA, 0.0024% TWEEN-20, and 1 mM DTT (added fresh daily), 10 μM ATP, 0.2 μCi [[ν-^33P] ATP per reaction, 4 μM Crosstide peptide substrate, and 1 nM SGK1 enzyme. Reactions were initiated by adding the indicated enzyme. The reaction was allowed to proceed for 2 hours, then terminated by the addition of 50 mM EDTA and quantified using a scintillation proximity assay procedure as described (McDonald, O. B., Antonsson, B., Arkinstal, S., Marshall, C. J., and Wood, E. R. (1999) Analytical Biochemistry, 268, 318-329).
Compounds under analysis were dissolved in Me2SO to 1 mM and serially diluted 1 to 3 with Me2SO through eleven columns of a 96 well plate. 1 μL of each concentration was transferred to the corresponding well of the assay plate. This created a final compound concentration range from 0.56 nM to 33.3 μM.
The data for dose responses were plotted as % Control calculated with the data reduction formula 100*(U1−C2)/(C1−C2) versus concentration of compound and fitted to the curve described by: y=((Vmax*x)/(K+x)) where Vmax is the upper asymptote and K is the IC50.

| IC50 | SMILES |
| --- | --- |
| < 1000 nM | Nc1ncc(-c2ccccc2)cc1-c1nc2ccccc2[nH]1 [Example 1, 3-(1H-benzimidazol-2-yl)-5-phenylpyridin-2-amine hydrochloride] |
| < 1000 nM | COC(=O)c1ccc2nc(-c3cc(-c4cccc(OC)c4)cnc3N)[nH]c2c1 [Example 7, Methyl 2-[2-amino-5-(3-methoxyphenyl)pyridin-3-yl]-1H-benzimidazole-6-carboxylate hydrochloride] |

Second part, the molecule before the results:

| SMILES | IC50 |
| --- | --- |
| Nc1ncc(-c2ccccc2)cc1-c1nc2ccc(S(N)(=O)=O)cc2[nH]1 [Example 4, 2-(2-amino-5-phenylpyridin-3-yl)-1H-benzimidazole-6-sulfonamide hydrochloride] | < 1000 nM |
| COc1cccc(-c2cnc(N)c(-c3nc4cc(Cl)c(F)cc4[nH]3)c2)c1 [Example 11, 3-(5-chloro-6-fluoro-1H-benzimidazol-2-yl)-5-(3-methoxyphenyl)pyridin-2-amine hydrochloride] | < 1000 nM |
| Nc1ncc(-c2ccc(F)cc2)cc1-c1nc2ccc(S(N)(=O)=O)cc2[nH]1 [Example 14, 2-[2-amino-5-(4-fluorophenyl)pyridin-3-yl]-1H-benzimidazole-6-sulfonamide] | < 1000 nM |
| Cc1cccc2[nH]c(-c3cc(-c4ccc(F)cc4)cnc3N)nc12 [Example 17, 5-(4-fluorophenyl)-3-(4-methyl-1H-benzimidazol-2-yl)pyridin-2-amine] | < 1000 nM |
